In article PMC5478271, “Chemical structure-guided design of dynapyrazoles, cell-permeable dynein inhibitors with a unique mode of action” (eLife, 2017):

Legend:
[1] = target: T1, human cytoplasmic dynein 2 (GFP-dynein 2, amino acids 1091–4307) (Homo sapiens, UniProt Q8NCM8); assay: Microtubule gliding (motility) assay with GFP-dynein 2; type: biochemical; conditions: 0.05 mg/mL casein; for Velocity of dynein-2-driven microtubule gliding: 20 µM compound, solvent control 128 ± 14 nm/s, mean ± S.D.; for Velocity of dynein-2-driven microtubule gliding / IC50: 1 mM MgATP, 2% DMSO; for IC50: read-out: IC50, inhibition of GFP-dynein-2-driven motility
T1 construct: (AA 1091–4307, uniprot: Q8NCM8); protein A tag (followed by TEV-cleavable linker) (N, cleaved yes); made in house; host or cells: Sf9 insect cells (baculovirus)
T1 sequence (Q8NCM8 1091-4307): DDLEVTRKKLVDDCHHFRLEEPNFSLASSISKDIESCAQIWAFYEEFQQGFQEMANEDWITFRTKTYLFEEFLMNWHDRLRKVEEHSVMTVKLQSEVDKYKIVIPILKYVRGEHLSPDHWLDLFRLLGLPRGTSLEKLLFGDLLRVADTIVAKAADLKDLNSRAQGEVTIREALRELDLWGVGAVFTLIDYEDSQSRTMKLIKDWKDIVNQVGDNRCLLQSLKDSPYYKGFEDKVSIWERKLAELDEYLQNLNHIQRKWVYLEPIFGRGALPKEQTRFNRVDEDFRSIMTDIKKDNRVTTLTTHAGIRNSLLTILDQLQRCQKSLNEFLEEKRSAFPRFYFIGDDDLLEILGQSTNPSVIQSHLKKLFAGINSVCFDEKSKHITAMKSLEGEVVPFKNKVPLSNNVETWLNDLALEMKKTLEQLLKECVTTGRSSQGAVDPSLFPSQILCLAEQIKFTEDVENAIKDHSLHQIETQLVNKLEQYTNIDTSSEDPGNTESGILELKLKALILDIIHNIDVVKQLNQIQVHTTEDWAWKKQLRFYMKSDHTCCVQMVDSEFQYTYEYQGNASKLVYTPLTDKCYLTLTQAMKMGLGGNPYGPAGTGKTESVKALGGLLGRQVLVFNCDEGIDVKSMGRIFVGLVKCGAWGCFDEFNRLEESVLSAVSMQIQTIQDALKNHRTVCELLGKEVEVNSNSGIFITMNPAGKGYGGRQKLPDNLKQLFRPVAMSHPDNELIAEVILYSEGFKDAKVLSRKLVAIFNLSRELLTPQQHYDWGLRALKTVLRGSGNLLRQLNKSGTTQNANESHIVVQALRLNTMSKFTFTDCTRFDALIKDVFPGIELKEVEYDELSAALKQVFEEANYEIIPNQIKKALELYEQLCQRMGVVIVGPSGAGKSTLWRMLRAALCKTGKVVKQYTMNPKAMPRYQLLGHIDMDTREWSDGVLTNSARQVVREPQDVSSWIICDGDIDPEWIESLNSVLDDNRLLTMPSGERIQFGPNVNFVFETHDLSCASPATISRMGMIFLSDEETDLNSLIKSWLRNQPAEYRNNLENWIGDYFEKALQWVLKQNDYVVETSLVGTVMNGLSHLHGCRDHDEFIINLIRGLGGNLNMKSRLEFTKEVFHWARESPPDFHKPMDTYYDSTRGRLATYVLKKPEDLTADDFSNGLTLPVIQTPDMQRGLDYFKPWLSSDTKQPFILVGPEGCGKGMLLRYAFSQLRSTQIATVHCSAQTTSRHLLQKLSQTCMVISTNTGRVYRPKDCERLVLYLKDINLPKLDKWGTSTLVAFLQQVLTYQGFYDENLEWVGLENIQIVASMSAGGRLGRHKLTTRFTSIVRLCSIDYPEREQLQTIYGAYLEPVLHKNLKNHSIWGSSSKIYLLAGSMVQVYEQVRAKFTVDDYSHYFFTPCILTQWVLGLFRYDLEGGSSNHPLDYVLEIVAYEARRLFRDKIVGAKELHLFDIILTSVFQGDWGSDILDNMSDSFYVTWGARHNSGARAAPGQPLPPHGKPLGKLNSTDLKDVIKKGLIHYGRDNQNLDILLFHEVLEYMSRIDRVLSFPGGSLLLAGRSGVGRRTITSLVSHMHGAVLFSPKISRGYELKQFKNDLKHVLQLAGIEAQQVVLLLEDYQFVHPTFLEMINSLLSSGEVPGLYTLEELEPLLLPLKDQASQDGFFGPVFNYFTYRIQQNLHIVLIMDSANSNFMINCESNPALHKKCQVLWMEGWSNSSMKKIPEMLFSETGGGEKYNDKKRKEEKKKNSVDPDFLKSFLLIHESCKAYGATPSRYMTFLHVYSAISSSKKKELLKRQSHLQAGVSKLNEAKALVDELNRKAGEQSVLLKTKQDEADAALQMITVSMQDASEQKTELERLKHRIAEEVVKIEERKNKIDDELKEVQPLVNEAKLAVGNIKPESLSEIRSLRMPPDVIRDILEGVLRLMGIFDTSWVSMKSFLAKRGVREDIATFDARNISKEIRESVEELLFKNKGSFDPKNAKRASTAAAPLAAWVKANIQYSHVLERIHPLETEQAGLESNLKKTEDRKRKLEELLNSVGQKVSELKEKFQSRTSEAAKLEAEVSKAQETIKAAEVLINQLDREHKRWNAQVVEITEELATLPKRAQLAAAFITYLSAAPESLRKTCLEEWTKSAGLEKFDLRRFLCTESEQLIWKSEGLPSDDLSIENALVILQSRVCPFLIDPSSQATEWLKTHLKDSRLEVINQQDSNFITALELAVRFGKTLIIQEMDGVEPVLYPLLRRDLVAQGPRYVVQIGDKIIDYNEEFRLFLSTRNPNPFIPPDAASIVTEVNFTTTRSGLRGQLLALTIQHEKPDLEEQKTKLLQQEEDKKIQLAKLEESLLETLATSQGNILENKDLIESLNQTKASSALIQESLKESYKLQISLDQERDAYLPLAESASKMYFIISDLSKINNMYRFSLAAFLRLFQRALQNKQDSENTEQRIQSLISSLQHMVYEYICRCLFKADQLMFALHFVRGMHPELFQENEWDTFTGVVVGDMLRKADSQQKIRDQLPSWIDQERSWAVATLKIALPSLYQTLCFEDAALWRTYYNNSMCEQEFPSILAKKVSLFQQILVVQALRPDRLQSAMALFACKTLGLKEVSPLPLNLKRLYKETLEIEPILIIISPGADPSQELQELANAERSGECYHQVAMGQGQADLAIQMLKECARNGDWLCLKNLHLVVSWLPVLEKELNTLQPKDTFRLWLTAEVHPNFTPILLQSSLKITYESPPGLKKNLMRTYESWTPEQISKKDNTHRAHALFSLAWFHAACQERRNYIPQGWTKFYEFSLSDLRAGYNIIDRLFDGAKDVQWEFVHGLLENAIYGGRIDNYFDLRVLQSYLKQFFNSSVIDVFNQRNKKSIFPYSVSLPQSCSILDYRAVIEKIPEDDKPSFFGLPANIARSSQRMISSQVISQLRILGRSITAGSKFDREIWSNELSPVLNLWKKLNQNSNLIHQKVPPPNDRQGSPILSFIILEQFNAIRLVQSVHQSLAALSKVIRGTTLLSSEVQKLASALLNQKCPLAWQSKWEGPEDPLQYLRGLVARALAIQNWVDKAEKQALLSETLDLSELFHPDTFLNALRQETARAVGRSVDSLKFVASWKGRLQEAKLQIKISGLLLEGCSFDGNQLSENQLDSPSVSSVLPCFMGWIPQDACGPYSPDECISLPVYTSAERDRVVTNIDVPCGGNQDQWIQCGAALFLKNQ
Experimental: We purified an N-terminally GFP-tagged motor-domain construct of dynein 2 using an insect cell expression system ([Schmidt et al., 2015]). The GFP tag in this construct (GFP-dynein 2, amino acids 1091–4307) allowed the motor protein to be immobilized on passivated glass coverslips used in microtubule gliding assays. GFP-dynein 2 was obtained as a mono-disperse peak by gel filtration (Figure 2D and E). In the presence of ATP (1 mM), this protein moved microtubules with a velocity of 128 ± 14 nm/s (mean ± SD, Figure 2G and I).
Reaction setup: A coverslip-based motility assay was adapted from similar assays reported previously ([Firestone et al., 2012]; [Schmidt et al., 2015]). A flow chamber assembled on a pre-cleaned microscope coverslide (3–5 µL chamber volume) was hydrated with buffer A (25 mM PIPES, 30 mM KCl, 5 mM MgCl2, 1 mM EGTA, 0.01% Triton X-100, 1 mM DTT, 20 µM taxol, pH 7.0 with KOH). Anti-GFP antibody (0.4 mg/mL, affinity purified rabbit antibody) was flowed into the chamber and allowed to adhere non-specifically to the glass for 20 s. The surface was blocked using 0.5 mg/mL α-casein in buffer A. Excess protein was then washed away with buffer A. GFP-dynein motor domain was diluted in buffer A supplemented with 1 mM DTT and 0.1 mM ATP (2 mM DTT final; GFP-dynein 2 diluted to: 180 nM; GFP-dynein 1 diluted to: 60 nM), flowed into the chamber and allowed to bind for 20 s. Excess protein was washed away with buffer A. Reaction mix (25 mM PIPES, 90 mM KCl, 6 mM MgCl2, 1 mM EGTA, 0.01% Triton X-100, 3 mM DTT, 20 µM taxol, 1 mM ATP, 1x oxygen scavenging system components [4.5 mg/mL glucose, 35 µg/mL catalase, 200 µg/mL glucose oxidase], 2% final DMSO [v/v] with compounds at appropriate concentrations, 0.05 mg/mL α-casein, microtubules [rhodamine labeled, purified from bovine brain, GMP-CPP and Taxol-stabilized], pH 7.0 with KOH) was flowed into the chamber using ~4 chamber volumes. For experiments shown in Figure 4—figure supplement 1, α-casein concentration in reaction mix was 0.5 mg/mL and all other parameters were held constant.
For reversibility experiments, motility in the presence of 5 µM 8 was observed as above, and upon completion of imaging, the chamber, fresh buffer A supplemented with 1 mM ATP was flowed into the chamber and incubated for 1 min; this wash and incubation cycle was repeated twice. Reaction mix containing DMSO (no compound) was flowed into the chamber using ~4 chamber volumes. The chamber was sealed with valap and returned to the microscope.
Microscopy conditions: Following addition of reaction mix, microtubules were allowed to bind for 5 min before imaging. For reversibility experiments, microtubules were allowed to bind for 10 min before imaging. Videos were taken on a Zeiss Axiovert 200M wide-field microscope equipped with a Zeiss 100x/1.45 NA α-Plan-Fluar objective. Data were captured with an EM-CCD camera (iXon DU-897, Andor Technology) with a 0.2 s exposure time and frame rate of 0.25–0.5/second. Four 10–20 s videos were captured per experimental condition. Velocities were measured using the kymograph tool in FIJI ([Schindelin et al., 2012]). Data analysis is discussed below under ‘General data analysis procedures.’
Microtubule velocity measurements: the tracks of microtubules were traced and converted to kymographs (x axis-displacement, y axis-time) using the kymograph function of FIJI (RRID: SCR_002285). The angle formed between an edge of a microtubule and the horizontal was measured. This angle, θ, was converted into velocity using the following relationship: velocity = 1/|tangent(θ)| * (unit pixel distance)/(time interval between frames).
The calibrated pixel distance was 0.152 µm and the time interval between frames was either 2 or 4 s. The velocities of at least seven microtubules were measured per field of view, if sufficient tracks could be found. In cases where fewer than seven microtubules were found in a field of view, velocities of all microtubules on the coverslip were measured. […]

GFP-dynein 1 = target: T2, GFP-dynein 1 (Homo sapiens, UniProt Q14204); assay: Basal ATPase activity of GFP-dynein 1; type: biochemical; conditions: 40 µM compound, 1 mM MgATP, 2% DMSO; control 0.62 ± 0.2 s^−1
T2 construct: (AA 1320–4646 with additional valine [at position 4647], uniprot Q14204); protein A tag (followed by TEV-cleavable linker) (N, cleaved yes); made in house; host or cells: insect cells (baculovirus)
Experimental: ATPase assays using recombinant Dynein 1 (wild-type and mutants) were performed in a buffer containing 25 mM PIPES pH7.0, 30 mM KCl, 1 mM EGTA, 5 mM MgCl2, 0.01% triton X-100, 1 mM DTT, and 20–30 µM taxol (if microtubules were present). For typical conditions, enzyme was incubated with varying concentrations of inhibitor in buffer containing 2% DMSO for 10 min in a volume of 10 μL. When microtubules were present, they were polymerized by stepwise addition of taxol and high concentrations of DMSO (30% final during polymerization reactions), and re-suspended following centrifugation in ATPase buffer to a concentration up to threefold above the final concentration used in the reaction (bovine brain tubulin, no fluoresecent label). For microtubule-stimulated reactions in dose-response format, reactions were assembled by 1:1:1 mixture of 3x enzyme stock, 3x compound stock (in buffer with 6% DMSO), and 3x microtubule stock to each well. For microtubule-stimulated ATPase assays at tubulin concentrations > 2.5 µM, enzyme stock was supplemented with compound stock in pure DMSO (resulting in an intermediate DMSO concentration of 6%), and then the microtubule stock was added. […]
Assembled reaction mixtures (including enzyme, compound, and microtubules, if present) were incubated for 10 min before addition of ATP. […] The fraction of γ-phosphate hydrolyzed in each condition was quantified using FIJI.

N#Cc1c(C2(c3ccc(Cl)cc3)CC2)nn2c1[nH]c(=O)c1cc(I)ccc12 [Compound 8, 2-[1-(4-chlorophenyl)cyclopropyl]-7-iodo-5-oxo-4H-pyrazolo[1,5-a]quinazoline-3-carbonitrile]
Reversibility of inhibition of dynein-2-dependent motility after washout ([1]; 5 µM 8, then washout, 1 mM ATP): reversed following washout
Velocity of dynein-2-driven microtubule gliding [1]: 6 ± 2 nm/s
IC50 [1]: 2.6 ± 1.3 µM
Inhibition of basal ATPase activity of GFP-dynein 1 (GFP-dynein 1): did not inhibit

N#C/C(C(=O)c1ccc(Cl)cc1Cl)=C1\NC(=O)c2ccc(Cl)cc2N1 [ciliobrevin D, reference compound]
Velocity of dynein-2-driven microtubule gliding [1]: 83 ± 10 nm/s
IC50 [1]: 20 µM
inhibition at 40 µM (GFP-dynein 1): ~70%
